Assay [1] is filed under the species Mus musculus. The experiment in a line: Selectivity ratio of Kd for GST-tagged full-length mouse PKC-delta C1B domain to Ki for GST-tagged mouse PKC-delta C1B domain P11R mutant.
A short description of assay [2]: Displacement of [20-3H]PDBu from GST-tagged mouse PKC-delta C1B domain P11R mutant expressed in Escherichia coli after 2 to 30 mins by polyethylene glycol precipitation assay in presence of phosphatidylserine.
Assay [3] is described as follows: Displacement of [20-3H]PDBu from GST-tagged mouse PKC-delta C1B domain N7R/L20R mutant expressed in Escherichia coli after 2 to 30 mins by polyethylene glycol precipitation assay in presence of phosphatidylserine.
The nature of assay [4]: Displacement of [20-3H]PDBu from GST-tagged mouse PKC-delta C1B domain L20R mutant expressed in Escherichia coli after 2 to 30 mins by polyethylene glycol precipitation assay in presence of phosphatidylserine.
A short description of assay [5]: Displacement of [20-3H]PDBu from GST-tagged mouse PKC-delta C1B domain N7R/P11R mutant expressed in Escherichia coli after 2 to 30 mins by polyethylene glycol precipitation assay in presence of phosphatidylserine.
Assay [6] is described as follows: Displacement of [20-3H]PDBu from GST-tagged mouse PKC-delta C1B domain N7R mutant expressed in Escherichia coli after 2 to 30 mins by polyethylene glycol precipitation assay in presence of phosphatidylserine.
Assay [7] is filed under the species Mus musculus. The experiment in a line: Selectivity ratio of Ki for GST-tagged mouse PKC-delta C1B domain N7R/P11R mutant to Kd for GST-tagged full-length mouse PKC-delta C1B domain.
The species entered for assay [8] is Mus musculus. The assay is described as follows: Selectivity ratio of Ki for GST-tagged mouse PKC-delta C1B domain P11R mutant to Kd for GST-tagged full-length mouse PKC-delta C1B domain.
For assay [9], the species on record is Mus musculus. The assay is described as follows: Selectivity ratio of Ki for GST-tagged mouse PKC-delta C1B domain N7R mutant to Kd for GST-tagged full-length mouse PKC-delta C1B domain.
For assay [10], the species on record is Mus musculus. The assay is described as follows: Selectivity ratio of Ki for GST-tagged mouse PKC-delta C1B domain N7R/L20R mutant to Kd for GST-tagged full-length mouse PKC-delta C1B domain.
For assay [11], the species on record is Mus musculus. The assay is described as follows: Selectivity ratio of Ki for GST-tagged mouse PKC-delta C1B domain L20R mutant to Kd for GST-tagged full-length mouse PKC-delta C1B domain.
Assay [12] is filed under the species Mus musculus. The assay is described as follows: Selectivity ratio of Ki for GST-tagged mouse PKC-delta C1B domain S10R mutant to Kd for GST-tagged full-length mouse PKC-delta C1B domain.
Assay [13] is described as follows: Displacement of [20-3H]PDBu from GST-tagged mouse PKC-delta C1B domain S10R mutant expressed in Escherichia coli after 2 to 30 mins by polyethylene glycol precipitation assay in presence of phosphatidylserine.
Assay [14] has as its target Protein kinase C delta type (Mus musculus, UniProt P28867). The experiment in a line: Displacement of [20-3H]PDBu from GST-tagged full-length mouse PKC-delta C1B domain expressed in Escherichia coli after 2 to 30 mins by polyethylene glycol precipitation assay in presence of phosphatidylserine.

Protein kinase C delta type, sequence (P28867 whole entry, the tested form may be a part): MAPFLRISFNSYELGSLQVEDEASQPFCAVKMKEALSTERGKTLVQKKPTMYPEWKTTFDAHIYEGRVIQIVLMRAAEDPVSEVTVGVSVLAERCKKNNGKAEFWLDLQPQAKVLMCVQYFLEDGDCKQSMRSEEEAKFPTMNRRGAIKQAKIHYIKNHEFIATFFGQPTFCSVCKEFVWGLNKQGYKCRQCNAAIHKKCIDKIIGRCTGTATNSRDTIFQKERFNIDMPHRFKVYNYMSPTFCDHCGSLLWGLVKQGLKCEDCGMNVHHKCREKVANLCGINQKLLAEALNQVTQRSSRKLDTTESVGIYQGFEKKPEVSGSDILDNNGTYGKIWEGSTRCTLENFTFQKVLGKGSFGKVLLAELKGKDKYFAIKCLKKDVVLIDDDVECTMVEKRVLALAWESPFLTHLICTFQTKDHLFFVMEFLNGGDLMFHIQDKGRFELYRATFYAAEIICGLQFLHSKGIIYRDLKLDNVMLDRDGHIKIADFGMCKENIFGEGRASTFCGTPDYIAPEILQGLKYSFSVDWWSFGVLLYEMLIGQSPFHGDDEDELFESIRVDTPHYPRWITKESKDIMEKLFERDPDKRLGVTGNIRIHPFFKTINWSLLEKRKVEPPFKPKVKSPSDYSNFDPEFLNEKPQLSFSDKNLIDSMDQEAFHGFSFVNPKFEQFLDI

As a reminder, the Ki is the equilibrium dissociation constant of an inhibitor or competing ligand from its target. By Kd is commonly meant the equilibrium constant for the complex coming apart. For `CC(C)C(CC(=O)OCC1(CO)C/C(=C\c2cccc(C(=O)O)c2)C(=O)O1)C(C)C` (centres undefined), the Selectivity ratio in assay [1] came to 5; in assay [7] it was 2.47; in [8] it was 0.2; in assay [9] it was 0.3; in assay [10], 21.8; in assay [11] it was 1.34. For the same compound, in assay [12], the Selectivity ratio turned out to be 0.4. The Ki in assay [2] worked out at 421 nM; in assay [3] it was 45.9 µM; in assay [4], 2820 nM; in assay [5], 5.19 µM; in [6], 640 nM; in assay [13], 840 nM. Moreover, the Kd in assay [14] was found to be 2100 nM.

The values above are taken from ChEMBL document CHEMBL3259571, “Diacylglycerol lactones targeting the structural features that distinguish the atypical C1 domains of protein kinase C ζ and ι from typical C1 domains” (J Med Chem, 2014).
